From patent US20250186475A1, “METHODS OF TREATING MEDICAL CONDITIONS USING ISLATRAVIR OR A RELATED COMPOUND” (ROME Therapeutics, Inc., priority 2022, published 2025)

How the values were obtained:
Assay type in all cases: cell-based
FaDu cells = assay: Cancer cell viability assay with 3D cell colonies (CellTiter-Glo), FaDu; settings: Homo sapiens, FaDu, 168 h, 7 days
Experimental: Ovarian cancer cell line SK-OV-3 cells were cultured in McCoy's 5a media containing 10% FBS. Ovarian cancer cell line OVCAR-8 cells were cultured in RPMI media containing 10% FBS. Additional cancer cell lines were cultured in the following media: • Ovarian cancer SW756 cells—L-15 (100% air)+10% FBS • Esophageal cancer TE-1 cells—RPMI-1640+10% FBS • Esophageal cancer KYSE-410 cells—RPMI-1640+5˜10% FBS • Esophageal cancer KYSE-70 cells—RPMI-1640+10% h.i.FBS. • Pharyngeal cancer FaDu cells—MEM+0.01 mM NEAA+10% FBS
Cell colony formation was tested using a 3D methylcellulose-based CellTiter-Glo (CTG) viability assay (Cat. No: G7573, Promega). Briefly, cells were inoculated into 96-well plates (at 1,500 cells per well) into a solution of 0.65% methylcellulose in growth media and incubated overnight at 37° C. in 5% CO2. The next day, serially diluted test compound (islatravir) or positive control (cisplatin, Cat. No. 6J015A89, Qilu Pharma) were added at the indicated concentrations, and the cells were incubated for 7 days. On day seven, 100 μL of CTG reagent was added, and the plates were incubated at room temperature for 20 min. Luminescence was read on an Envision Multi Label Reader according to manufacturer's instructions. IC50 values were determined using the following calculation: […]

[1] = test system: IFN-β production in PBMCs; assay: Decitabine-stimulated human PBMC assay; settings: PBMCs with anti-CD3/anti-CD28 and 10 μM decitabine, 5 days
Experimental: EasySep buffer (32 mL, Stem Cell, cat. #20144) was used to dilute 8 mL of LRSC buffy coat (from fresh Leukopak) with gentle mixing. The diluted buffy coat (20 mL) was transferred into each of two SepMate 50 tubes, and the tubes were filled with 15 mL of Lyphoprep (Stem Cell, ct. #07851) density gradient. The SepMate tubes were then centrifuged at […] for 10 minutes at room temperature with the brake on. The top layer of supernatant was collected in SepMate tubes by quickly pouring it into a new 50 mL conical tube. The PBMCs were washed with EasySep buffer x2 by centrifuging at 300G for 5 minutes. The cells were resuspended in 30 mL of EasySep and centrifuged at 100G for 5 minutes with the brake off, and the platelets were removed. The cells were then resuspended in 6 mL of 1×RBC lysis buffer (InvitroGen) and incubated at 37° C. for 5 minutes. Then, 25 mL of EasySep buffer was mixed into the tube and it was centrifuged at 300G for 5 minutes. The cells were resuspended in 10 mL of EasySep buffer and the cells were then counted with Cellometer (AO/PI). The PBMCs were resuspended in RPMI1640 (ThermoFisher)+10% FBS (HyClone)+p/s at 3×10^6/mL. The PBMCs (100 μL, 300 k PBMCs) were then seeded in a 96-well flat bottom microplate (Corning) that had been precoated with 100 μL of anti-CD3 antibody (10 μg/mL in PBS, Biolegend) or PBS at 4° C., one day before the assay was commenced. […]

[2] = test system: THP1-Dual™ KO-TREX1 cells; assay: Cellular assay for altering IFN production in THP1 TREX1 KO cells; settings: in the presence of 1 μM 5-aza-2′-deoxycytidine, five days
Experimental: THP1-Dual™ KO-TREX1 cells were purchased from Invivogen (cat #thpd-kotrex). The THP1-Dual™ KO-TREX1 cells were cultured in RPMI 1640, 10% heat-inactivated fetal bovine serum, 25 mM HEPES, 10 μg/mL Blasticidin, and 100 μg/mL Zeocin. THP1-Dual™ KO-TREX1 cells were treated with a dose titration of test compound in the presence of 1 μM 5-aza-2′-deoxycytidine (Sigma, cat #189825). Type 1 Interferon and cell viability were assessed after five days of treatment.
Stock solution of test compound was prepared in DMSO followed by a three-fold dilution in DMSO. Additional 50× dilution was prepared in cell culture media for each dilution. 10 μL of diluted test compound was then added to a 384-well plate.
THP1-Dual™ KO-TREX1 cells were treated with 1 μM 5-aza-2′-deoxycytidine. THP1-Dual™ KO-TREX1 cells (50 μL) were added to each well of the 384-well plate containing test compound titration at 10,000 cells/well. Cells were incubated at 37° C., 5% CO2 in a humidified incubator for five days. On day five, 20 μL of cell supernatant was transferred to a 384-well, white-walled plate, followed by addition to each well of 50 μL of QUANTI-LUC solution containing stabilizer. Luminescence was detected on a plate reader according to manufacturer's instructions. […]

- IC50 (FaDu cells): 10 to 30 µM
SMILES: C#C[C@]1(CO)O[C@@H](n2cnc3c(N)nc(F)nc32)C[C@@H]1O [Islatravir, (2R,3S,5R)-5-(6-amino-2-fluoro-9H-purin-9-yl)-2-ethynyl-2-(hydroxymethyl)tetrahydrofuran-3-ol]
- production of IFN-β [1]: activated production of IFN-β
- changes in IFN levels (% induction) [2]: induction of IFN
